In general, half-life refers to the time needed for the level to fall by half in the phase considered. For orientation: CL/F means clearance divided by bioavailability, as obtained after extravascular dosing. The term inhibition denotes the change of the read-out against control, counted positive when it falls. What is called bioavailability is the share of a dose that reaches the circulation, judged against a reference dose that is usually intravenous. Lower therefore signals little systemic uptake. The Cmax is the highest concentration seen after dosing. Usually Tmax stands for the time from dosing to the highest level. Usually AUC(0-t) stands for exposure summed from dosing to a finite time, without extrapolation to infinity. As usually defined, the AUC is concentration integrated over time.

This is an account of results in ChEMBL document CHEMBL3508693 (2016).

A short description of data set [1]: Terminal elimination half-life of SPP100 following single oral dose of SPP100 75 mg capsule studied in healthy human. Type of data set: ADME, organism-based. To be noted: plasma.
Data set [2] in a line: Oral clearance of SPP100 following single oral dose of SPP100 300 mg capsule studied in healthy human. Type of data set: ADME, organism-based. The settings on record: plasma.
Data set [3] concerns the target T1, CYP1A2 (Homo sapiens, UniProt P05177).
T1 sequence (P05177 whole entry): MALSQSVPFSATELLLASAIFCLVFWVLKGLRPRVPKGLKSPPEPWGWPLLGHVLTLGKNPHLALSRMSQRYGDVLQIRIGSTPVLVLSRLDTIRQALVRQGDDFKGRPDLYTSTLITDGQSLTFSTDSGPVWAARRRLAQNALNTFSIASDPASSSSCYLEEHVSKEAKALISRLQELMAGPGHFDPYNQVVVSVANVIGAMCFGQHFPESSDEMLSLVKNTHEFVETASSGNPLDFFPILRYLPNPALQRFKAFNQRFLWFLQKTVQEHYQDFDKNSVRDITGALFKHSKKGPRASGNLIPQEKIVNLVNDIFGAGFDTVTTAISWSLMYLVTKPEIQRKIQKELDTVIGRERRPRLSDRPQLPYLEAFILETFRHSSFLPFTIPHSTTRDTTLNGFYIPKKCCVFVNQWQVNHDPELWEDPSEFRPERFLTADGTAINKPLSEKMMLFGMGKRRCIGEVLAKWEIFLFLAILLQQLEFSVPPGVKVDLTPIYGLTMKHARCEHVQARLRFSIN
Put plainly: Inhibitory activity of 20 uM SPP100 on 545 Pmoles of cDNA-derived CYP1A2 enzyme in microsome prepared from human lymphoblastoid cell line. On the set-up: conc 20 uM, interact cpd conc 50 uM. Type of data set: ADME, microsomes. To be noted: probe phenacetin.

Data set [4] deals with CYP2C9 (Homo sapiens, UniProt P11712). Put plainly: Inhibitory activity of 200 uM SPP100 on 222 Pmoles of cDNA-derived CYP2C9 enzyme in microsome prepared from human lymphoblastoid cell line. The class given is ADME, microsomes. On the set-up: conc 200 uM, interact cpd conc 6 uM. To be noted: probe diclofenac.
Sequence of CYP2C9 (P11712 whole entry, the tested form may be a part): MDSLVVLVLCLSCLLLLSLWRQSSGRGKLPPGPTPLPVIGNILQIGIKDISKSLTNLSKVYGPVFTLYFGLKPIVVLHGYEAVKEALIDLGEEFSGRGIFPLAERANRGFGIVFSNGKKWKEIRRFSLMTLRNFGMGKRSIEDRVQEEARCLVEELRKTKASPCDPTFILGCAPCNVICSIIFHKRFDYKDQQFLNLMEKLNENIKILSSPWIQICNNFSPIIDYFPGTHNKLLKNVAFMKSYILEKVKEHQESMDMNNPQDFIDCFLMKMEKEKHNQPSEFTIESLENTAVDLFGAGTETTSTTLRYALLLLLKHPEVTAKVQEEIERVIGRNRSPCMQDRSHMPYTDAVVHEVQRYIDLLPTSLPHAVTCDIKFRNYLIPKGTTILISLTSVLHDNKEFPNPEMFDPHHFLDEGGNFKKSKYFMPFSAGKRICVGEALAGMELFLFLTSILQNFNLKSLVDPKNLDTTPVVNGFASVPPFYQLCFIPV
A short description of data set [5]: Bioavailability of aliskiren in receiver rat following duodenal infusion of radioactivity through bile from donor rat treated with single intravenous administration of 10 mg.Kg-1 [14C] aliskiren hemifumarate. Type of data set: ADME, organism-based, HAN:WIST(SPF). To be noted: in vivo.
Data set [6] in a line: % SPP100 recovered in urine following single intravenous administration of 10 mg.Kg-1 [14C] aliskiren hemifumarate in male rat. To be noted: in vivo. The class given is ADME, organism-based, HAN:WIST(SPF).
Data set [7] can be described thus: % of radioactivity recovered as aliskiren in urine following intravenous administration of [14C] aliskiren hemifumarate at 10 mg.Kg-1 level in rat. Type of data set: ADME, organism-based, Albino HAN:WIST. To be noted: in vivo.
Data set [8] addresses CYP2C19 (Homo sapiens, UniProt P33261). Put plainly: Inhibition of CYP2C19 in human liver microsomes from 10 healthy donors at 200 uM aliskiren (SPP100). The settings on record: probe S-mephenytoin (4'-hydroxylation). On the set-up: conc 200 uM. Type of data set: ADME, Microsome. In general terms: Liver microsomes are vesicles of endoplasmic reticulum, rich in cytochrome P450 enzymes.

A short description of data set [9]: Excretion of radioactivity (48-72h) in urine following single intravenous dose of 10 mg.Kg-1 [14C] aliskiren hemifumarate in mouse. To be noted: in vivo. The class given is ADME, organism-based, TgRasH2.
The nature of data set [10]: Excretion of radioactivity (48-72h) in faeces following single intravenous dose of 10 mg.Kg-1 [14C] aliskiren hemifumarate in mouse. Type of data set: ADME, organism-based, TgRasH2, Feces. The settings on record: in vivo.
Data set [11] is described as follows: Excretion of radioactivity (0-72h) in faeces following single intravenous dose of 10 mg.Kg-1 [14C] aliskiren hemifumarate in mouse. Type of data set: ADME, organism-based, TgRasH2, Feces. To be noted: in vivo.
Data set [12] can be described thus: % of radioactivity (24h) recovered in bile following single intravenous administration of 10 mg.Kg-1 [14C] aliskiren hemifumarate in male rat. Type of data set: ADME, organism-based, HAN:WIST(SPF). The settings on record: in vivo.
Data set [13] is described as follows: % of radioactivity (48h) recovered in cage wash of receiver rat following duodenal infusion of radioactivity through bile from donor rat treated with single intravenous administration of 10 mg.Kg-1 [14C] aliskiren hemifumarate. The class given is ADME, organism-based, HAN:WIST(SPF). To be noted: in vivo.
The target in data set [14] is T2, Cytochrome P450 2J2 (Homo sapiens, UniProt P51589).
T2 sequence (P51589 whole entry): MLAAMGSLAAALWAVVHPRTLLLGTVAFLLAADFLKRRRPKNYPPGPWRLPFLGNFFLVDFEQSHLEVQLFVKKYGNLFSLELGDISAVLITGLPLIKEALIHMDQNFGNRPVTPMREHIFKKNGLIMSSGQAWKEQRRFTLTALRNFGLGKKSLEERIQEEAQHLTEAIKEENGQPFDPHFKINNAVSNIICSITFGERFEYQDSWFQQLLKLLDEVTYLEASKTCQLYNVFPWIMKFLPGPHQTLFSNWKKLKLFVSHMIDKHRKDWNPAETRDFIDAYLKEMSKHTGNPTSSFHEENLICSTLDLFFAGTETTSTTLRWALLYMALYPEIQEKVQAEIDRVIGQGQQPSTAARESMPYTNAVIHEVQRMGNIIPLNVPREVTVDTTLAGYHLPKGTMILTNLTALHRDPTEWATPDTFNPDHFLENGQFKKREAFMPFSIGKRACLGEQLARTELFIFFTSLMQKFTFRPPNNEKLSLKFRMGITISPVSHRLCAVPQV
Put plainly: Metabolic clearance (ul.min.nmol-1 CYP) of aliskiren hemifumarate for CYP2J2 was determined in human liver microsome incubated with [14C]SPP100 hemifumarate. Type of data set: ADME. The settings on record: microsomes.

A short description of data set [15]: Mean excretion of radioactivity (24-48h) in urine and faeces following single intravenous dose of 10 mg.Kg-1 [14C] aliskiren hemifumarate in rat. The class given is ADME, organism-based, Albino HAN:WIST, Urine/Feces. To be noted: in vivo.
The nature of data set [16]: Excretion of radioactivity (72-96h) in urine following single oral dose of 100 mg.Kg-1 [14C] aliskiren hemifumarate in rat. Type of data set: ADME, organism-based, Albino HAN:WIST. The settings on record: in vivo.
Data set [17] is described as follows: Bioavailability (0-168h) of unlabeled aliskiren hemifumarate following single oral administration of aliskiren hemifumarate at 3 mg.Kg-1 level in marmoset. The class given is ADME, organism-based, Callithrix jacchus. The settings on record: plasma.
A short description of data set [18]: Cmax (0-96h) of unlabeled aliskiren hemifumarate following oral administration of aliskiren hemifumarate at 100 mg.Kg-1 level in rat. Type of data set: ADME, organism-based. The settings on record: Albino HAN:WIST, plasma.
The nature of data set [19]: Effect of 2 week oral dosing of aliskiren hemifumarate at 100 mg.Kg-1 level on hematological parameter values in female Callithrix jacchus. Type of data set: toxicity, organism-based, Plasma. To be noted: marmoset, in vivo, 336 h.
Data set [20] is described as follows: Apparent terminal elimination half-life (0-96h) of unlabeled aliskiren hemifumarate following intravenous administration of aliskiren hemifumarate at 10 mg.Kg-1 level in rat. The class given is ADME, organism-based. The settings on record: Albino HAN:WIST, plasma.
Data set [21] in a line: Cmax/dose of aliskiren hemifumarate following 4 week oral dietary dosing of aliskiren hemifumarate at 2000 mg.Kg-1 level in female mouse. The settings on record: in vivo, 672 h. Type of data set: ADME, organism-based, CB6F1-TGrasH2.
A short description of data set [22]: Cmaxspec of aliskiren hemifumarate following 2 week oral dosing of aliskiren hemifumarate at 50 mg.Kg-1 level studied on day 14 in female Callithrix jacchus. Type of data set: ADME, organism-based, Plasma. The settings on record: marmoset, in vivo, 336 h.
The nature of data set [23]: Tmax of aliskiren hemifumarate following 2 week oral dosing of aliskiren hemifumarate at 100 mg.Kg-1 level studied on day 14 in male Callithrix jacchus. The class given is ADME, organism-based. To be noted: marmoset, plasma.
A short description of data set [24]: AUC(0-24h) of aliskiren hemifumarate following 2 week oral dosing of aliskiren hemifumarate at 100 mg.Kg-1 level studied on day 1 in male Callithrix jacchus. The class given is ADME, organism-based. To be noted: marmoset, plasma.
Data set [25] is described as follows: AUC(0-24h) of aliskiren hemifumarate following 2 week oral dosing of aliskiren hemifumarate at 50 mg.Kg-1 level studied on day 1 in female Callithrix jacchus. The settings on record: marmoset, plasma. The class given is ADME, organism-based.
The nature of data set [26]: AUC(0-24)/dose of aliskiren hemifumarate following repeated oral administration of [14C] aliskiren hemifumarate at 100 mg.Kg-1 level studied in rat. Type of data set: ADME, organism-based, Albino HAN:WIST, Plasma. The settings on record: in vivo.
The nature of data set [27]: AUC (0-96 or 0-168h) of unlabeled aliskiren hemifumarate following single intravenous administration of aliskiren hemifumarate at 1 mg.Kg-1 level in marmoset. The class given is ADME, organism-based, Callithrix jacchus. The settings on record: plasma.

Molecules are shown by their SMILES.

Sequence of CYP2C19 (P33261 whole entry): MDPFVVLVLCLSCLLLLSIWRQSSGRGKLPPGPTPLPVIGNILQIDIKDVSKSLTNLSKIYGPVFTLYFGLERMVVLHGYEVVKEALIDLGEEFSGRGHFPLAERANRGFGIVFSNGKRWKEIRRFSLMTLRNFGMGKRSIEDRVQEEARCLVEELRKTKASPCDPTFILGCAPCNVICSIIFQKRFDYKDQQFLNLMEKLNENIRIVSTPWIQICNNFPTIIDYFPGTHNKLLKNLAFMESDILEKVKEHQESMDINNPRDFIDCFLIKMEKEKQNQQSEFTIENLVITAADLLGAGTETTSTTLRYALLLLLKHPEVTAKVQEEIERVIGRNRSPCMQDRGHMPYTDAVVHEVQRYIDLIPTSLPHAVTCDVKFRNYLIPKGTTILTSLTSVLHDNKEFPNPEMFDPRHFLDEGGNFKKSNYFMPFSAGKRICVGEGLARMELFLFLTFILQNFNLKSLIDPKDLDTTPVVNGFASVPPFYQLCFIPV

As to `COCCCOc1cc(C[C@@H](C[C@H](N)[C@@H](O)C[C@H](C(=O)NCC(C)(C)C(N)=O)C(C)C)C(C)C)ccc1OC`, the half-life in data set [1] is 54 h. Also, the CL/F in data set [2] is 4230 mL/min. The inhibition at 20 µM in data set [3] is -5.8%. The values for the inhibition at 200 µM in data set [4] and in [8] were 14.9% and 42.5%, respectively. In addition, in [5], the F is less than 3%. Further, the Compound recovery in [6] is given as 79.8%; in data set [7], greater than 2%.
Take `COCCCOc1cc(C[C@@H](C[C@H](N)[C@@H](O)C[C@H](C(=O)NCC([14CH3])([14CH3])C(N)=O)C(C)C)C(C)C)ccc1OC.O=C(O)/C=C/C(=O)O`: the Radiolabel recovery was determined as 8.99% in data set [9]; 0.74% in [10]; 91.1% in data set [11]; 70% in [12]; 4% in data set [13]; 28.9% in data set [15]. Besides, the Radiolabel recovery in data set [16] was 0.01%. In addition, the CL in [14] turned out to be 10.6 µL·min/nmol.
`COCCCOc1cc(C[C@@H](C[C@H](N)[C@@H](O)C[C@H](C(=O)NCC(C)(C)C(N)=O)C(C)C)C(C)C)ccc1OC.COCCCOc1cc(C[C@@H](C[C@H](N)[C@@H](O)C[C@H](C(=O)NCC(C)(C)C(N)=O)C(C)C)C(C)C)ccc1OC.O=C(O)/C=C/C(=O)O` [ALISKIREN FUMARATE] gave a bioavailability in data set [17] of 3%. The same compound showed a Cmax in data set [18] of 270 nM. Further, the Change in hematology result in [19] was “OUTCOME = Hematological parameter values did not differ from control values. No animals died during the study”. For the same compound, the half-life in data set [20] was 23.1 h. Besides, the Cmax normalised in data set [21] is 0.615 (ng/mL)/(mg/kg/day); in data set [22], 0.202 (ug/ml)/(mg/kg). Moreover, the time of peak concentration (Tmax) in data set [23] stood at 2 h. In addition, the figures for the AUC(0-t) at 24 h in [24] and in data set [25] were 76400 ng·h/mL and 56200 ng·h/mL, respectively. Also, in data set [26], the “AUC(0-24) normalised” value is 17.2 (nmol.h.L-1)/(mg/kg). Besides, the AUC at 168 h in data set [27] is 49 µM·h.
